Measured values from PubChem BioAssay (NCI).
Several values for one entry are separate records, joined by “and”; a condition that tells them apart may be missing. Equal values may be shown once.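 Values below derive from 48-hour exposures of cells grown in 96-well plates, with endpoints linearly interpolated between the two concentrations bracketing the appropriate inhibition level. Here, GI50 denotes the concentration required for 50% inhibition of growth. TGI: concentration producing complete growth inhibition.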

The compounds below were run on CAKI-1 renal (assay: inhibition of tumour cell growth, NCI panel, 48 h).
CN(CC(=O)O)c1ncc2c(n1)CCCC2 gave a TGI of over 100 µM. Work on O=C(Nc1nc(C23CC4CC(CC(C4)C2)C3)cs1)c1cc2ccc(O)cc2oc1=O yielded a TGI of over 100 µM. Work on O=C1C(c2c(O)[nH]c3ccc(F)cc23)=Nc2ccccc21 yielded a TGI of over 100 µM. Compound CCOC(=O)c1nnc2c(C(=O)OCC)c3ccccc3n2c1N has a TGI of over 100 µM. With S=c1sc2c(Cl)nc(Cl)nc2n1-c1ccccc1 the TGI was over 100 µM. With CC12CC(c3ccccc3O1)C(C(=O)Nc1ccc(Cl)cc1Cl)C(=O)N2 (stereo unspecified) the TGI was over 100 µM. CCC(C)OC(=O)/C(Br)=C1/OC(=O)c2ccccc2-c2ccccc21 (stereo unspecified) showed a TGI of over 100 µM. For NC(=O)C(C(N)=O)=C(O)C(=O)/C=C(\O)c1ccccc1, the TGI was over 100 µM. Work on Cn1ccc(C(=O)NCCN(CCNC(=O)c2ccn(C)c(=O)c2O)CCNC(=O)c2cccc(=O)n2O)c(O)c1=O yielded a TGI of over 100 µM. With COC(=O)c1cc2ccc(N)nc2[nH]c1=O the TGI was over 100 µM. With Cc1cc(S(=O)(=O)Nc2n[nH]c(N)n2)c(SCC(=O)O)cc1Cl the TGI was over 10 µM. NNC(=O)c1n[nH]nc1C(=O)NN gave a TGI of 32.6 µM. For O=C(O)[C@@H]1CCS(=O)(=O)N1, the TGI was over 100 µM. CC(C)(C)OC(=O)[C@H]1CCC(=S)N1Cc1ccccc1 gave a TGI of over 100 µM. COc1ccc(S(=O)(=O)c2nnc(S(=O)(=O)Cc3ccccc3)s2)cc1 showed a TGI of 39.3 µM. O=[N+]([O-])c1ccc2c(c1)C1=C(CO2)Cc2ccccc2O1 was tested, and the TGI was 31.4 µM. O=c1c(/C=C/c2c(O)ccc3ccccc23)nnc2sc(-c3cccc(Br)c3)nn12 was tested, and the TGI was 56.8 µM. Cc1c(N=Nc2ccc(Cl)cc2)c(-c2ccccc2)n(C2OC(CO)C(O)C(O)C2O)c(=S)c1C#N (stereo unspecified) was tested, and the TGI was 34 µM. CC(=O)Oc1c2c(c(O)c3ccccc13)C(n1cnc3c(ncn3C3OC(CO)C4OC(C)(C)OC43)c1=N)CCC2 (stereo unspecified) gave a TGI of 50.1 µM. N#Cc1c(N)n(-c2cccc(C(=O)O)c2)c(=O)c2cc([N+](=O)[O-])ccc12 gave a TGI of over 100 µM. CN(C)CCC(=O)c1ccccc1 was tested, and the TGI was 40.5 µM. Compound CCOc1ccccc1NC(=O)C(=O)CC(=O)c1sc(Nc2nnc(-c3ccc(Cl)c(Cl)c3)o2)nc1C has a TGI of over 100 µM.

The compounds below were run on UACC-62 melanoma (assay: inhibition of tumour cell growth, NCI panel, 48 h).
In the case of O=c1cc(-c2cccc3ccccc23)[nH]c2ncccc12, the TGI is reported as over 100 µM. Work on COC(=O)c1ccccc1/C=C1\Cc2ccc(C)c(C)c2C1=O yielded a TGI of over 100 µM. COc1cc(C2c3cc4c(cc3OC3(OC)COC(=O)C23)OCO4)cc(OC)c1OC(C)=O (stereo unspecified) was tested, and the TGI was over 100 µM. Work on CN1CCOC(c2ccccc2)O1 (stereo unspecified) yielded a TGI of over 100 µM. For O=C(/C=C/c1cc2ccccc2o1)N1CCN(c2ccccn2)CC1, the TGI was over 100 µM. CCCNC(=S)NNC(=O)CSc1nc(-c2ccccc2)c(-c2ccccc2)[nH]1 was tested, and the TGI was over 100 µM. CC(=O)c1sc(Nc2nnc(-c3ccc(-c4nnc(Nc5nc(C)c(C(C)=O)s5)o4)cc3)o2)nc1C gave a TGI of over 100 µM. With COC1(OC)C(N(C)C)=C(Cl)C(=O)/C1=C/C=O the TGI was over 100 µM. Work on OC1C#CCSCC#C/C=C\1 (stereo unspecified) yielded a TGI of over 100 µM. For CC(=O)Oc1ccc2c(C)cc(=O)oc2c1OC(C)=O, the TGI was over 100 µM. With N#Cc1c2ccccc2cn1-c1ccc(F)cc1 the TGI was over 100 µM. Cc1ccccc1N1C(=O)C2C=CC(n3[nH]c(=O)n(Cc4ccccc4)c3=O)CC2C1=O (stereo unspecified) was tested, and the TGI was over 100 µM. With CN(CC(=O)O)c1ncc2c(n1)CCCC2 the TGI was over 100 µM. With COc1ccc(/C=C2\N=C(SC)N(CN3CCOCC3)C2=O)cc1 the TGI was over 100 µM. With O=C1C(c2c(O)[nH]c3ccc(F)cc23)=Nc2ccccc21 the TGI was over 100 µM. Compound CCOC(=O)c1nnc2c(C(=O)OCC)c3ccccc3n2c1N has a TGI of 9.25 µM. With S=c1sc2c(Cl)nc(Cl)nc2n1-c1ccccc1 the TGI was 27.8 µM. CC12CC(c3ccccc3O1)C(C(=O)Nc1ccc(Cl)cc1Cl)C(=O)N2 (stereo unspecified) showed a TGI of over 100 µM. With CCC(C)OC(=O)/C(Br)=C1/OC(=O)c2ccccc2-c2ccccc21 (stereo unspecified) the TGI was 57.5 µM. Work on NC(=O)C(C(N)=O)=C(O)C(=O)/C=C(\O)c1ccccc1 yielded a TGI of over 100 µM. With Cn1ccc(C(=O)NCCN(CCNC(=O)c2ccn(C)c(=O)c2O)CCNC(=O)c2cccc(=O)n2O)c(O)c1=O the TGI was over 100 µM. With O=C(O)[C@@H]1CCS(=O)(=O)N1 the TGI was over 100 µM. CC(C)(C)OC(=O)[C@H]1CCC(=S)N1Cc1ccccc1 showed a TGI of over 100 µM. O=[N+]([O-])c1ccc2c(c1)C1=C(CO2)Cc2ccccc2O1 showed a TGI of 50.7 µM. In the case of NC(=O)C12CC3CC(CC(F)(C3)C1)C2, the TGI is reported as over 100 µM. O=c1c(/C=C/c2c(O)ccc3ccccc23)nnc2sc(-c3cccc(Br)c3)nn12 was tested, and the TGI was 68.6 µM. With Cc1c(N=Nc2ccc(Cl)cc2)c(-c2ccccc2)n(C2OC(CO)C(O)C(O)C2O)c(=S)c1C#N (stereo unspecified) the TGI was 26.1 µM. CC(=O)Oc1c2c(c(O)c3ccccc13)C(n1cnc3c(ncn3C3OC(CO)C4OC(C)(C)OC43)c1=N)CCC2 (stereo unspecified) showed a TGI of 29 µM. For N#Cc1c(N)n(-c2cccc(C(=O)O)c2)c(=O)c2cc([N+](=O)[O-])ccc12, the TGI was over 100 µM. Work on CN(C)CCC(=O)c1ccccc1 yielded a TGI of over 68.1 µM. CCOc1ccccc1NC(=O)C(=O)CC(=O)c1sc(Nc2nnc(-c3ccc(Cl)c(Cl)c3)o2)nc1C showed a TGI of over 100 µM.

Each compound was assayed on NCI-H226 lung (assay: inhibition of tumour cell growth, NCI panel, 48 h).
O=c1cc(-c2cccc3ccccc23)[nH]c2ncccc12 was tested, and the TGI was over 100 µM. For COC(=O)c1ccccc1/C=C1\Cc2ccc(C)c(C)c2C1=O, the TGI was over 100 µM. For CN1CCOC(c2ccccc2)O1 (stereo unspecified), the TGI was over 100 µM. CCCNC(=S)NNC(=O)CSc1nc(-c2ccccc2)c(-c2ccccc2)[nH]1 showed a TGI of over 100 µM. Work on CC(=O)c1sc(Nc2nnc(-c3ccc(-c4nnc(Nc5nc(C)c(C(C)=O)s5)o4)cc3)o2)nc1C yielded a TGI of over 100 µM. COC1(OC)C(N(C)C)=C(Cl)C(=O)/C1=C/C=O showed a TGI of over 100 µM. OC1C#CCSCC#C/C=C\1 (stereo unspecified) was tested, and the TGI was over 100 µM. CC(=O)Oc1ccc2c(C)cc(=O)oc2c1OC(C)=O gave a TGI of over 100 µM. Work on N#Cc1c2ccccc2cn1-c1ccc(F)cc1 yielded a TGI of 55.6 µM. Cc1ccccc1N1C(=O)C2C=CC(n3[nH]c(=O)n(Cc4ccccc4)c3=O)CC2C1=O (stereo unspecified) showed a TGI of over 100 µM. CN(CC(=O)O)c1ncc2c(n1)CCCC2 was tested, and the TGI was over 100 µM. COc1ccc(/C=C2\N=C(SC)N(CN3CCOCC3)C2=O)cc1 was tested, and the TGI was over 100 µM. O=C(Nc1nc(C23CC4CC(CC(C4)C2)C3)cs1)c1cc2ccc(O)cc2oc1=O gave a TGI of 49 µM. O=C1C(c2c(O)[nH]c3ccc(F)cc23)=Nc2ccccc21 showed a TGI of over 100 µM. Work on S=c1sc2c(Cl)nc(Cl)nc2n1-c1ccccc1 yielded a TGI of over 100 µM. CCC(C)OC(=O)/C(Br)=C1/OC(=O)c2ccccc2-c2ccccc21 (stereo unspecified) was tested, and the TGI was over 100 µM. NC(=O)C(C(N)=O)=C(O)C(=O)/C=C(\O)c1ccccc1 showed a TGI of over 100 µM. Cn1ccc(C(=O)NCCN(CCNC(=O)c2ccn(C)c(=O)c2O)CCNC(=O)c2cccc(=O)n2O)c(O)c1=O was tested, and the TGI was over 100 µM. In the case of COC(=O)c1cc2ccc(N)nc2[nH]c1=O, the TGI is reported as over 100 µM. Cc1cc(S(=O)(=O)Nc2n[nH]c(N)n2)c(SCC(=O)O)cc1Cl showed a TGI of over 10 µM. Work on CC(C)(C)OC(=O)[C@H]1CCC(=S)N1Cc1ccccc1 yielded a TGI of over 100 µM. Work on O=[N+]([O-])c1ccc2c(c1)C1=C(CO2)Cc2ccccc2O1 yielded a TGI of over 100 µM. In the case of CC(=O)Oc1c2c(c(O)c3ccccc13)C(n1cnc3c(ncn3C3OC(CO)C4OC(C)(C)OC43)c1=N)CCC2 (stereo unspecified), the TGI is reported as 52.8 µM. Compound N#Cc1c(N)n(-c2cccc(C(=O)O)c2)c(=O)c2cc([N+](=O)[O-])ccc12 has a TGI of over 100 µM. With CN(C)CCC(=O)c1ccccc1 the TGI was 98.4 µM. Work on CCOc1ccccc1NC(=O)C(=O)CC(=O)c1sc(Nc2nnc(-c3ccc(Cl)c(Cl)c3)o2)nc1C yielded a TGI of over 100 µM.

Each compound was assayed on HCC-2998 colon (assay: inhibition of tumour cell growth, NCI panel, 48 h).
With O=c1cc(-c2cccc3ccccc23)[nH]c2ncccc12 the GI50 was 0.0313 µM and the TGI was 0.424 µM and 1.54 µM. COC(=O)c1ccccc1/C=C1\Cc2ccc(C)c(C)c2C1=O was tested, and the TGI was over 100 µM. In the case of COc1cc(C2c3cc4c(cc3OC3(OC)COC(=O)C23)OCO4)cc(OC)c1OC(C)=O (stereo unspecified), the TGI is reported as 14.3 µM. For CN1CCOC(c2ccccc2)O1 (stereo unspecified), the TGI was over 100 µM. O=C(/C=C/c1cc2ccccc2o1)N1CCN(c2ccccn2)CC1 was tested, and the TGI was over 100 µM. CC(=O)c1sc(Nc2nnc(-c3ccc(-c4nnc(Nc5nc(C)c(C(C)=O)s5)o4)cc3)o2)nc1C showed a TGI of over 100 µM. Work on CC1c2c(Cl)nc3ccccc3c2Oc2c1c(Cl)nc1ccccc21 yielded a TGI of over 100 µM. COC1(OC)C(N(C)C)=C(Cl)C(=O)/C1=C/C=O was tested, and the TGI was over 100 µM. OC1C#CCSCC#C/C=C\1 (stereo unspecified) showed a TGI of over 100 µM. Work on N#Cc1c2ccccc2cn1-c1ccc(F)cc1 yielded a TGI of over 100 µM. Cc1ccccc1N1C(=O)C2C=CC(n3[nH]c(=O)n(Cc4ccccc4)c3=O)CC2C1=O (stereo unspecified) gave a TGI of over 100 µM. Work on O=C(Nc1nc(C23CC4CC(CC(C4)C2)C3)cs1)c1cc2ccc(O)cc2oc1=O yielded a TGI of 43.3 µM. Compound O=C1C(c2c(O)[nH]c3ccc(F)cc23)=Nc2ccccc21 has a TGI of over 100 µM. CCOC(=O)c1nnc2c(C(=O)OCC)c3ccccc3n2c1N gave a TGI of over 100 µM. Compound S=c1sc2c(Cl)nc(Cl)nc2n1-c1ccccc1 has a TGI of over 100 µM. With CC12CC(c3ccccc3O1)C(C(=O)Nc1ccc(Cl)cc1Cl)C(=O)N2 (stereo unspecified) the TGI was over 100 µM. With CCC(C)OC(=O)/C(Br)=C1/OC(=O)c2ccccc2-c2ccccc21 (stereo unspecified) the TGI was 39.4 µM. Work on NC(=O)C(C(N)=O)=C(O)C(=O)/C=C(\O)c1ccccc1 yielded a TGI of over 100 µM. With Cn1ccc(C(=O)NCCN(CCNC(=O)c2ccn(C)c(=O)c2O)CCNC(=O)c2cccc(=O)n2O)c(O)c1=O the TGI was over 100 µM. COC(=O)c1cc2ccc(N)nc2[nH]c1=O showed a TGI of over 100 µM. With Cc1cc(S(=O)(=O)Nc2n[nH]c(N)n2)c(SCC(=O)O)cc1Cl the TGI was over 10 µM. For NNC(=O)c1n[nH]nc1C(=O)NN, the TGI was over 100 µM. For O=C(O)[C@@H]1CCS(=O)(=O)N1, the TGI was over 100 µM. Work on CC(C)(C)OC(=O)[C@H]1CCC(=S)N1Cc1ccccc1 yielded a TGI of over 100 µM. O=[N+]([O-])c1ccc2c(c1)C1=C(CO2)Cc2ccccc2O1 was tested, and the TGI was 35.3 µM. NC(=O)C12CC3CC(CC(F)(C3)C1)C2 was tested, and the TGI was over 100 µM. Work on O=c1c(/C=C/c2c(O)ccc3ccccc23)nnc2sc(-c3cccc(Br)c3)nn12 yielded a TGI of 89 µM. In the case of CC(=O)Oc1c2c(c(O)c3ccccc13)C(n1cnc3c(ncn3C3OC(CO)C4OC(C)(C)OC43)c1=N)CCC2 (stereo unspecified), the TGI is reported as 28.4 µM. For N#Cc1c(N)n(-c2cccc(C(=O)O)c2)c(=O)c2cc([N+](=O)[O-])ccc12, the TGI was over 100 µM. CN(C)CCC(=O)c1ccccc1 was tested, and the TGI was over 69.6 µM. CCOc1ccccc1NC(=O)C(=O)CC(=O)c1sc(Nc2nnc(-c3ccc(Cl)c(Cl)c3)o2)nc1C gave a TGI of over 100 µM.
